Source: EPA's ToxRefDB 2

How the values were obtained:
[1] = test system: rat; conditions: Developmental neurotoxicity study; long evans; Injection; Intraperitoneal; dose end: 21 PND; group: cannot be grouped; systemic / in life observation / body weight / offspring (pup) weight
[2] = test system: rat; conditions: Developmental neurotoxicity study, long evans, Injection, Intraperitoneal, dose end: 66 PND, group: cannot be grouped
[3] = test system: rat; conditions: Developmental neurotoxicity study; long evans; Injection; Intraperitoneal; dose end: 18 PND; group: cannot be grouped; systemic / pathology gross / brain / reduced size + systemic / pathology microscopic / brain / depletion cellular
[4] = test system: rat; conditions: Developmental neurotoxicity study, long evans, Injection, Intraperitoneal, dose end: 122 PND, group: cannot be grouped
[5] = test system: rat; conditions: Prenatal developmental toxicity study; wistar; Oral; Gavage/Intubation; dose end: 21 GD; group: developmental; systemic / in life observation / body weight / fetal weight + developmental / developmental landmark / anogenital distance (agd) / …
[6] = systemic / clinical chemistry / [other] / [other] + systemic / clinical chemistry / protein / protein + systemic / in life observation / …
[7] = systemic / clinical chemistry / [other] / [other] + systemic / clinical chemistry / protein / protein + systemic / organ weight / brain / …
[8] = systemic / in life observation / body weight / offspring (pup) weight + systemic / in life observation / clinical signs / [other] + systemic…
[9] = systemic / organ weight / brain / nos

| Compound | LEL [1] [mg/kg/day] | LOAEL [1] [mg/kg/day] | NEL [1] [mg/kg/day] | NOAEL [1] [mg/kg/day] | LOAEL [2, 6] [mg/kg/day] | NOAEL [2, 6] [mg/kg/day] | LEL [2, 7] [mg/kg/day] | NEL [2, 7] [mg/kg/day] | LEL [3] [mg/kg/day] | LOAEL [3] [mg/kg/day] | NEL [3] [mg/kg/day] | NOAEL [3] [mg/kg/day] | LOAEL [4, 8] [mg/kg/day] | NOAEL [4, 8] [mg/kg/day] | LEL [4, 9] [mg/kg/day] | NEL [4, 9] [mg/kg/day] | LEL [5] [mg/kg/day] | LOAEL [5] [mg/kg/day] | NEL [5] [mg/kg/day] | NOAEL [5] [mg/kg/day] |
| --- | --- | --- | --- | --- | --- | --- | --- | --- | --- | --- | --- | --- | --- | --- | --- | --- | --- | --- | --- | --- |
| [CH3][Sn+]([CH3])[CH3].[OH-] [Trimethyltin hydroxide] | 6 | > 6 | 5 | ≥ 6 | > 6 | ≥ 6 | 5 | < 5 | 6 | > 6 | < 6 | ≥ 6 | > 6 | ≥ 6 | 4 | < 4 |  |  |  |  |
| CC(C)COC(=O)c1ccccc1C(=O)OCC(C)C [Diisobutyl phthalate] |  |  |  |  |  |  |  |  |  |  |  |  |  |  |  |  | 600 | > 600 | < 600 | ≥ 600 |
